Here are results for 19 molecules from US9340577B2, “HLA binding motifs and peptides and their uses” (priority 1992, dated 2016).

What all share (assay): biochemical
The target in one assay is DRB1*0901 (Homo sapiens, UniProt P01903+P01911, A100R/A103E/D57H/D86V/F55Y/F60I/F76Y/I96F/K127E/L162R/M171V/P40D/Q125H/Q99R/R33Q/R42F/S133A/S66N/T210M/V115G/W38K/Y107V/Y59G/Y89S). Type of assay: binding.
The next assay deals with DRB5*0101 (Homo sapiens, UniProt P01903+Q30154). The following applies: Binding affinity DRB5 *0101.
A further assay deals with DRB1*1201 (Homo sapiens, UniProt P01903+P01911, A100R/A169T/D57E/D86V/F55L/H45Y/K41T/L162R/M171V/P40S/Q125H/Q178H/Q39Y/Q99D/R42G/S66L/T262R/V114A/V67L/W38E/Y59H/Y61H/Y89S). Type of assay: binding.
For the next assay, the target named is DR7 (DRB1*0701) (Homo sapiens, UniProt P01903+P01911, A100R/A102G/A103Q/D57E/D86V/E43K/F76Y/K127E/L162R/M171V/P40G/Q125H/Q99D/R33Q/R42Y/R54Q/S133A/S66F/T210M/V115G/Y107V/Y59L/Y89S). Type of assay: binding.
A further assay deals with DRB1*0802 (Homo sapiens, UniProt P01903+P01911, A100R/A103L/A169T/F76Y/H45Y/I96F/K41T/L162R/M171V/P40S/Q125H/Q178H/Q39Y/Q99D/R218S/R42G/S66Y/V115G/W38E). The assay is classed as binding.
For a further assay, the target named is DRB1*1101 (Homo sapiens, UniProt P01903+P01911, A100R/A169T/A87E/I96F/K41T/L162R/M171V/P40S/Q125H/Q178H/Q39Y/Q99D/R42S/S66Y/T262R/V115G/W38E). The following applies: Binding affinity DRB1 *1101.
Chain of DRB1*1101 (P01903 26-254 limits assumed, other chains not shown): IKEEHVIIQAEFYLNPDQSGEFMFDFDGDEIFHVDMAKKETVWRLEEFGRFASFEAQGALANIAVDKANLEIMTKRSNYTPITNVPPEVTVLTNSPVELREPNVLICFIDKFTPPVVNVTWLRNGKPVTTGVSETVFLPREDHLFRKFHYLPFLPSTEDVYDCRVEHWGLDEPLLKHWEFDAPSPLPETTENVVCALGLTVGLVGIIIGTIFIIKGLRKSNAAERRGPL

No end group written: not given here.

As usually defined, the IC50 is the concentration that inhibits the measured activity by half. Consider PRSLQCVSLHLLSND [Peptide 68.0016], for which the IC50 was > 20 µM against DRB1*0901, > 20 µM on DRB5*0101 and 3.86 µM against DRB1*1201.
As for `CC[C@H](C)[C@H](NC(=O)[C@@H](NC(=O)[C@@H](N)CO)C(C)C)C(=O)N[C@@H](CC(C)C)C(=O)N[C@@H](CC(C)C)C(=O)NCC(=O)N[C@@H](CCCNC(=N)N)C(=O)N[C@@H](Cc1c[nH]cn1)C(=O)N[C@@H](CO)C(=O)N[C@@H](CC(C)C)C(=O)N[C@@H](Cc1ccccc1)C(=O)N[C@@H](Cc1c[nH]cn1)C(=O)N1CCC[C@H]1C(=O)N[C@@H](CCC(=O)O)C(=O)N[C@@H](CC(=O)O)C(=O)O` [Peptide 68.0067], the values for the half-maximal inhibitory concentration (IC50) at DR7 (DRB1*0701) and against DRB1*1201 were > 20 µM and 0.091 µM, respectively.
Turning to `CC[C@H](C)[C@H](NC(=O)[C@H](CO)NC(=O)[C@H](CC(N)=O)NC(=O)[C@H](C)NC(=O)[C@H](CC(C)C)NC(=O)[C@H](CCC(=O)O)NC(=O)[C@H](Cc1ccccc1)NC(=O)[C@@H](N)C(C)C)C(=O)N[C@H](C(=O)N[C@@H](CC(C)C)C(=O)N1CCC[C@H]1C(=O)N[C@@H](Cc1ccccc1)C(=O)N[C@@H](CC(=O)O)C(=O)N[C@@H](CS)C(=O)N[C@@H](CCCNC(=N)N)C(=O)O)C(C)C` [Peptide 68.0124], the IC50 against DRB1*1201 was 0.525 µM; at DRB1*0802, > 20 µM.
As for GKVFRGNKVKNAQLA [Peptide 68.0096], the 50% inhibitory concentration (IC50) against DRB1*0901 and against DRB1*1201 was > 20 µM in each case.
Take `CC[C@H](C)[C@H](NC(=O)[C@H](CO)NC(=O)[C@H](CC(N)=O)NC(=O)[C@H](C)NC(=O)[C@H](CC(C)C)NC(=O)[C@H](CCC(=O)O)NC(=O)[C@H](Cc1ccccc1)NC(=O)[C@@H](NC(=O)[C@H](CCSC)NC(=O)CN)C(C)C)C(=O)N[C@H](C(=O)N[C@@H](CC(C)C)C(=O)N1CCC[C@H]1C(=O)N[C@@H](Cc1ccccc1)C(=O)N[C@@H](CC(=O)O)C(=O)O)C(C)C` [Peptide 68.0123]: the IC50 at DRB1*1101 was > 20 µM; at DRB1*1201, 0.098 µM.
For the molecule `CC[C@H](C)[C@H](NC(=O)CNC(=O)[C@H](CCC(N)=O)NC(=O)[C@H](CC(C)C)NC(=O)[C@@H](NC(=O)CNC(=O)[C@H](CC(N)=O)NC(=O)[C@H](CS)NC(=O)[C@@H](NC(=O)[C@H](CC(C)C)NC(=O)[C@@H]1CCCN1C(=O)CN)C(C)C)C(C)C)C(=O)N[C@H](C(=O)N[C@@H](CO)C(=O)N[C@@H](Cc1c[nH]c2ccccc12)C(=O)O)[C@@H](C)O` [Peptide 68.0080], the IC50 is > 20 µM at DRB1*0901 and 1.88 µM against DRB1*1201.
Take `CC[C@H](C)[C@H](NC(=O)[C@H](Cc1ccccc1)NC(=O)[C@H](C)NC(=O)[C@H](CCCNC(=N)N)NC(=O)[C@H](CCC(=O)O)NC(=O)[C@H](CC(C)C)NC(=O)[C@H](Cc1ccccc1)NC(=O)[C@H](CCSC)NC(=O)[C@H](CC(C)C)NC(=O)[C@H](CCC(N)=O)NC(=O)[C@@H](N)CC(=O)O)C(=O)N[C@@H](CC(=O)O)C(=O)N1CCC[C@H]1C(=O)N[C@@H](CC(C)C)C(=O)NCC(=O)O` [Peptide 68.0181]: 0.146 µM corresponded to half-maximal inhibition at DRB1*1201 (IC50).
Still for that read-out and setting: then `CC[C@H](C)[C@H](NC(=O)[C@H](CCC(N)=O)NC(=O)[C@@H](NC(=O)[C@H](Cc1ccccc1)NC(=O)[C@H](CC(N)=O)NC(=O)[C@H](Cc1ccc(O)cc1)NC(=O)[C@H](CC(C)C)NC(=O)[C@H](Cc1ccccc1)NC(=O)[C@@H](N)CCCCN)[C@@H](C)O)C(=O)N1CCC[C@H]1C(=O)N[C@@H](Cc1c[nH]cn1)C(=O)N[C@@H](CC(C)C)C(=O)N[C@@H](C)C(=O)NCC(=O)N[C@H](C(=O)O)[C@@H](C)O` [Peptide 68.0087], with 1.24 µM.
As for `CC[C@H](C)[C@H](NC(=O)[C@H](CO)NC(=O)[C@@H](NC(=O)CNC(=O)[C@H](CCC(=O)O)NC(=O)[C@@H]1CCCN1)C(C)C)C(=O)N[C@@H](Cc1c[nH]c2ccccc12)C(=O)N[C@@H](CC(N)=O)C(=O)N1CCC[C@H]1C(=O)N[C@H](C(=O)N[C@@H](CC(C)C)C(=O)N[C@@H](CC(C)C)C(=O)N[C@@H](Cc1c[nH]c2ccccc12)C(=O)N[C@@H](CCC(N)=O)C(=O)N1CCC[C@H]1C(=O)O)[C@@H](C)CC` [Peptide 68.0033], the IC50 is > 20 µM at DRB1*1101; > 20 µM at DRB1*0901; > 20 µM on DRB5*0101; 7.97 µM on DRB1*1201; > 20 µM against DRB1*0802.
For `CC[C@H](C)[C@H](NC(=O)[C@@H](N)CC(C)C)C(=O)N[C@@H](CCSC)C(=O)N[C@@H](Cc1ccc(O)cc1)C(=O)N[C@@H](CO)C(=O)N[C@@H](C)C(=O)N[C@@H](Cc1c[nH]cn1)C(=O)N[C@@H](CC(=O)O)C(=O)N[C@H](C(=O)N[C@H](C(=O)N[C@H](C(=O)N[C@@H](CO)C(=O)NCC(=O)N[C@@H](CC(C)C)C(=O)N[C@@H](CCC(N)=O)C(=O)O)C(C)C)[C@@H](C)O)[C@@H](C)O` [Peptide 68.0050], the IC50 on DRB1*1101, on DRB5*0101, on DRB1*1201 and at DRB1*0802 was > 20 µM in each case.
The molecule NSRLLQERGVAYINA [Peptide 68.0176] came in with an IC50 at DRB1*1201 of 0.62 µM.
In the case of `CSCC[C@H](NC(=O)[C@H](CCC(N)=O)NC(=O)[C@H](CC(C)C)NC(=O)CNC(=O)[C@H](CO)NC(=O)[C@@H](NC(=O)[C@@H](NC(=O)[C@@H](NC(=O)[C@@H](N)CC(=O)O)[C@@H](C)O)[C@@H](C)O)C(C)C)C(=O)N[C@@H](C)C(=O)N[C@@H](CC(C)C)C(=O)N[C@@H](CC(=O)O)C(=O)N[C@H](C(=O)N[C@@H](Cc1ccc(O)cc1)C(=O)N[C@@H](CC(N)=O)C(=O)O)C(C)C` [Peptide 68.0051], the IC50 was > 20 µM on DRB1*1101, > 20 µM at DRB5*0101, 0.712 µM against DRB1*1201 and > 20 µM against DRB1*0802.
`CSCC[C@H](NC(=O)[C@H](CC(C)C)NC(=O)[C@H](CC(=O)O)NC(=O)[C@@H](N)Cc1c[nH]cn1)C(=O)N[C@@H](CC(C)C)C(=O)N[C@@H](CC(C)C)C(=O)N[C@@H](CCCNC(=N)N)C(=O)N[C@@H](CC(C)C)C(=O)N[C@@H](CO)C(=O)N[C@@H](CCC(=O)O)C(=O)N1CCC[C@H]1C(=O)N[C@@H](C)C(=O)N[C@@H](CCC(=O)O)C(=O)N[C@@H](CC(C)C)C(=O)N[C@H](C(=O)O)[C@@H](C)O` [Peptide 68.0073]: the IC50 against DRB1*1201 came to 0.52 µM.
Same read-out and setting: then `CC(C)C[C@H](NC(=O)[C@H](CCC(=O)O)NC(=O)[C@H](CCCCN)NC(=O)[C@H](C)N)C(=O)N[C@@H](CCCCN)C(=O)N[C@@H](Cc1ccccc1)C(=O)N[C@H](C(=O)N[C@H](C(=O)N[C@@H](CC(C)C)C(=O)N[C@H](C(=O)N[C@@H](Cc1ccccc1)C(=O)N[C@@H](CCCNC(=N)N)C(=O)N[C@@H](Cc1c[nH]cn1)C(=O)NCC(=O)N[C@@H](CC(=O)O)C(=O)O)C(C)C)[C@@H](C)O)C(C)C` [68,0025], with 0.693 µM.
Turning to `CC[C@H](C)[C@H](NC(=O)[C@H](CO)NC(=O)[C@H](CC(C)C)NC(=O)[C@@H](NC(=O)[C@H](CC(C)C)NC(=O)[C@H](CC(=O)O)NC(=O)[C@H](Cc1c[nH]c2ccccc12)NC(=O)[C@@H](N)CCSC)C(C)C)C(=O)N[C@@H](C)C(=O)N[C@@H](CC(C)C)C(=O)N[C@@H](CO)C(=O)N[C@H](C(=O)NCC(=O)N[C@@H](CS)C(=O)N[C@H](C(=O)O)[C@@H](C)O)C(C)C` [Peptide 68.0001], the IC50 was > 20 µM on DRB1*1101, > 20 µM on DRB5*0101, 4.58 µM against DRB1*1201 and > 20 µM against DRB1*0802.
`CC[C@H](C)[C@H](NC(=O)[C@H](CS)NC(=O)[C@H](Cc1c[nH]cn1)NC(=O)[C@H](C)NC(=O)[C@H](C)NC(=O)[C@@H](NC(=O)[C@H](CC(C)C)NC(=O)[C@@H](NC(=O)[C@H](Cc1c[nH]c2ccccc12)NC(=O)[C@H](CCC(N)=O)NC(=O)[C@@H]1CCCN1C(=O)[C@@H](N)Cc1c[nH]cn1)C(C)C)[C@@H](C)O)C(=O)N[C@@H](CCCNC(=N)N)C(=O)N[C@@H](CC(N)=O)C(=O)N[C@@H](CCCCN)C(=O)O` [Peptide 68.0064] displayed an IC50 on DRB1*1201 of 5.79 µM.
On the same count and under the same terms, then GAAVVHEIVRSFGTL [Peptide 68.0173], with 0.517 µM.
With `CC[C@H](C)[C@H](NC(=O)[C@H](CO)NC(=O)[C@H](CO)NC(=O)[C@H](CC(=O)O)NC(=O)[C@H](C)NC(=O)[C@H](CC(N)=O)NC(=O)[C@@H](NC(=O)[C@H](Cc1ccc(O)cc1)NC(=O)[C@H](C)NC(=O)[C@@H](NC(=O)CN)C(C)C)[C@@H](C)CC)C(=O)N[C@@H](CCC(=O)O)C(=O)NCC(=O)N[C@@H](CC(N)=O)C(=O)N[C@@H](Cc1ccc(O)cc1)C(=O)O` [Peptide 68.0110], the IC50 on DRB1*1101 was > 20 µM; on DRB5*0101, > 20 µM; at DRB1*1201 it was 5.49 µM; against DRB1*0802, > 20 µM.
In turn, LRMMNDQLMFLERAF [Peptide 68.0131] displayed an IC50 against DRB1*1201 of 0.28 µM.
